Experimental data taken from ChEMBL document CHEMBL1127166, “The analgesic effect of epibatidine and isomers” (1993).

Key:
Type in all cases: functional
Mus musculus [1] = assay: Tested for the maximum possible analgesic effect along with naloxone (10 mg/kg) after 30 min at subcutaneous dosage of 10000 ug/kg
Mus musculus [2] = assay: Tested for the maximum possible analgesic effect along with saline after 30 min at subcutaneous dosage of 1000-10000 ug/kg
Mus musculus [3] = assay: Tested for the maximum possible analgesic effect along with saline after 30 min at subcutaneous dosage of 10000 ug/kg
Mus musculus [4] = assay: Tested for the maximum possible analgesic effect along with saline after 5 min at subcutaneous dosage of 10000 ug/kg
Mus musculus [5] = assay: Tested for the maximum possible analgesic effect along with naloxone (10 mg/kg) after 15 min at subcutaneous dosage of 10000 ug/kg
Mus musculus [6] = assay: Tested for the maximum possible analgesic effect along with naloxone (10 mg/kg) after 5 min at subcutaneous dosage of 10000 ug/kg
Mus musculus [7] = assay: Tested for the maximum possible analgesic effect along with saline after 15 min at subcutaneous dosage of 10000 ug/kg
Mus musculus [8] = assay: Tested for the maximum possible analgesic effect of epibatidine after 15 min in mouse tail-flick assay at subcutaneous dosage of 10 ug/kg
Mus musculus [9] = assay: Tested for the maximum possible analgesic effect of epibatidine after 5 min in mouse tail-flick assay at subcutaneous dosage of 10 ug/kg
Mus musculus [10] = assay: Tested for the maximum possible analgesic effect of epibatidine after 30 min in mouse tail-flick assay at subcutaneous dosage of 10 ug/kg
Mus musculus [11] = assay: Tested for the analgesic effect in the mouse tail-flick assay at 5 min after subcutaneous injection at dosage of 10-50 ug/kg; settings: sc
Mus musculus [12] = assay: Tested for the maximum possible analgesic effect of epibatidine at 15 min in mouse tail-flick assay after subcutaneous dosage of 1000 ug/kg
Mus musculus [13] = assay: Tested for the analgesic effect in the mouse tail-flick assay at 5 min after subcutaneous injection at dosage of 1000 ug/kg; settings: sc
Mus musculus [14] = assay: Tested for the maximum possible analgesic effect of epibatidine after 5 min in mouse tail-flick assay at subcutaneous dosage of 1000 ug/kg
Mus musculus [15] = assay: Tested for the maximum possible analgesic effect of epibatidine after 30 min in mouse tail-flick assay at subcutaneous dosage of 1000 ug/kg
Mus musculus [16] = assay: Tested for the analgesic effect in the mouse tail-flick assay at 5 min after subcutaneous injection at dosage of 5-50 ug/kg
Mus musculus [17] = assay: Tested for the maximum possible analgesic effect along with naloxone (10 mg/kg) after 5 min at subcutaneous dosage of 10 ug/kg
Mus musculus [18] = assay: Tested for the maximum possible analgesic effect along with naloxone (10 mg/kg) after 15 min at subcutaneous dosage of 10 ug/kg
Mus musculus [19] = assay: Tested for the maximum possible analgesic effect along with naloxone (10 mg/kg) after 30 min at subcutaneous dosage of 10 ug/kg
Mus musculus [20] = assay: Tested for the maximum possible analgesic effect along with saline after 15 min at subcutaneous dosage of 10 ug/kg
Mus musculus [21] = assay: Tested for the maximum possible analgesic effect along with saline after 30 min at subcutaneous dosage of 10 ug/kg
Mus musculus [22] = assay: Tested for the maximum possible analgesic effect along with saline after 5 min at subcutaneous dosage of 10 ug/kg
Mus musculus [23] = assay: Tested for maximum possible of analgesic effect of epibatidine after 5 min in mouse tail-flick assay at subcutaneous dosage of 10 ug/kg
Mus musculus [24] = assay: Tested for the maximum possible analgesic effect of epibatidine after 15 min in mouse tail-flick assay at subcutaneous dosage of 1000 ug/kg
Mus musculus [25] = assay: Tested for the analgesic effect in the mouse tail-flick assay at 5 min after subcutaneous injection at dosage of 50-1000 ug/kg; settings: sc

For CN1CC[C@]23c4c5ccc(O)c4O[C@H]2[C@@H](O)C=C[C@H]3[C@H]1C5.CN1CC[C@]23c4c5ccc(O)c4O[C@H]2[C@@H](O)C=C[C@H]3[C@H]1C5.O=S(=O)(O)O, the Max possible effect (Mus musculus [1]) was 4%, the Max possible effect (Mus musculus [2]) was 4524% and the Max possible effect (Mus musculus [3]) was 94%. It also gave a Max possible effect (Mus musculus [4]) of 7%, a Max possible effect (Mus musculus [5]) of 3% and a Max possible effect (Mus musculus [6]) of 0%. It also gave a Max possible effect (Mus musculus [7]) of 51%.
With CN1C2CCC1C(c1ccc(Cl)nc1)C2 (configuration not stated) the Max possible effect (Mus musculus [8]) was 16%, the Max possible effect (Mus musculus [9]) was 64% and the Max possible effect (Mus musculus [10]) was 8%. It also gave an ED50 (Mus musculus [11]) of 9 µg/kg.
For CC(=O)N1C2CCC1C(c1ccc(Cl)nc1)C2 (configuration not stated), the Max possible effect (Mus musculus [12]) was 3%, the ED50 (Mus musculus [13]) was greater than 1000 µg/kg and the Max possible effect (Mus musculus [14]) was 4%. The Max possible effect (Mus musculus [15]) was 0%.
With Clc1ccc(C2CC3CCC2N3)cn1 (racemic) [EPIBATIDINE] the Max possible effect (Mus musculus [8]) was 23%, the Max possible effect (Mus musculus [9]) was 47% and the Max possible effect (Mus musculus [10]) was 5%. It also gave an ED50 (Mus musculus [16]) of 10 µg/kg.
Work on Clc1ccc(C2CC3CCC2N3)cn1 (stereo in doubt; d-1) [EPIBATIDINE] yielded a Max possible effect (Mus musculus [8]) of 32%, a Max possible effect (Mus musculus [17]) of 77% and a Max possible effect (Mus musculus [9]) of 89%. The Max possible effect (Mus musculus [18]) was 49%, the Max possible effect (Mus musculus [19]) was 0% and the Max possible effect (Mus musculus [10]) was 3%. It also gave an ED50 (Mus musculus [16]; Mus musculus, Tail, sc, 5 min, read-out: ED50) of 7 µg/kg, a Max possible effect (Mus musculus [20]) of 48% and a Max possible effect (Mus musculus [21]) of 4%. It also gave a Max possible effect (Mus musculus [22]) of 86%.
Clc1ccc(C2CC3CCC2N3)cn1 (stereo in doubt; l-1) [EPIBATIDINE] showed a Max possible effect (Mus musculus [8]) of 46%, a Max possible effect (Mus musculus [10]) of 1% and an ED50 (Mus musculus [16]) of 9 µg/kg. For the same molecule, the Max possible effect (Mus musculus [23]) was 58%.
In the case of Clc1ccc(C2CC3CCC2N3)cn1 (configuration not stated) [EPIBATIDINE], the Max possible effect (Mus musculus [24]) is reported as 10%, the Max possible effect (Mus musculus [14]) is reported as 5% and the ED50 (Mus musculus [25]) is reported as greater than 1000 µg/kg. It also gave a Max possible effect (Mus musculus [15]) of 11%.
